# PubChem BioAssay (NCI)
#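 The compound was tested at five concentrations on cells cultured in 96-well plates, with a 48-hour exposure period. Abbreviation: GI50, concentration required for 50% inhibition of growth. TGI: concentration producing complete growth inhibition.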
# Key:
# Experiment in all cases: growth of human tumour cells (NCI), 48 h
# HCC-2998 colon = system: HCC-2998 colon
# SK-OV-3 ovarian = system: SK-OV-3 ovarian
# SF-295 CNS = system: SF-295 CNS
# DU-145 prostate = system: DU-145 prostate
# UACC-257 melanoma = system: UACC-257 melanoma
# PC-3 prostate = system: PC-3 prostate
# HCT-116 colon = system: HCT-116 colon
# K-562 leukemia = system: K-562 leukemia
# BT-549 breast = system: BT-549 breast
# HCT-15 colon = system: HCT-15 colon
# CAKI-1 renal = system: CAKI-1 renal
# KM12 colon = system: KM12 colon
# HOP-62 NSCLC = system: HOP-62 NSCLC
# UO-31 renal = system: UO-31 renal
# 786-0 renal = system: 786-0 renal
# U251 CNS = system: U251 CNS
# ACHN renal = system: ACHN renal
# SNB-19 CNS = system: SNB-19 CNS
# A549 NSCLC = system: A549 NSCLC
# CCRF-CEM leukemia = system: CCRF-CEM leukemia
# HL-60(TB) leukemia = system: HL-60(TB) leukemia
# SK-MEL-2 melanoma = system: SK-MEL-2 melanoma
# UACC-62 melanoma = system: UACC-62 melanoma
# IGROV1 ovarian = system: IGROV1 ovarian
# MCF7 breast = system: MCF7 breast
# SK-MEL-5 melanoma = system: SK-MEL-5 melanoma
# SW-620 colon = system: SW-620 colon
# HS 578T breast = system: HS 578T breast
# NCI-H460 lung = system: NCI-H460 lung
# M14 melanoma = system: M14 melanoma
# EKVX NSCLC = system: EKVX NSCLC
# SK-MEL-28 melanoma = system: SK-MEL-28 melanoma
# MDA-MB-435 = system: MDA-MB-435
# HOP-92 NSCLC = system: HOP-92 NSCLC
# OVCAR-3 ovarian = system: OVCAR-3 ovarian
# MDA-MB-231 breast = system: MDA-MB-231 breast
# NCI-H23 lung = system: NCI-H23 lung
# TK-10 renal = system: TK-10 renal
# NCI-H226 lung = system: NCI-H226 lung
# MOLT-4 leukemia = system: MOLT-4 leukemia
# OVCAR-8 ovarian = system: OVCAR-8 ovarian
# COLO 205 colon = system: COLO 205 colon
# HT29 colon = system: HT29 colon
# SF-539 CNS = system: SF-539 CNS
# LOX IMVI melanoma = system: LOX IMVI melanoma
# T-47D breast = system: T-47D breast
# OVCAR-4 ovarian = system: OVCAR-4 ovarian
# A498 renal = system: A498 renal
# SR leukemia = system: SR leukemia
# SNB-75 CNS = system: SNB-75 CNS
# NCI/ADR-RES ovarian = system: NCI/ADR-RES ovarian
# RXF 393 renal = system: RXF 393 renal
# OVCAR-5 ovarian = system: OVCAR-5 ovarian
# SN12C renal = system: SN12C renal
# SF-268 CNS = system: SF-268 CNS
structure (smiles),measurement,setting,value
COc1ccc(C(=O)NCCNc2nccc(-c3c(-c4ccc(F)cc4)nc4sccn34)n2)cc1,GI50,HCC-2998 colon,9.72 µM
same,TGI,HCC-2998 colon,> 100 µM
same,GI50,SK-OV-3 ovarian,13.7 µM
same,TGI,SK-OV-3 ovarian,> 100 µM
same,GI50,SF-295 CNS,2.73 µM
same,TGI,SF-295 CNS,15.1 µM
same,GI50,DU-145 prostate,1.04 µM
same,TGI,DU-145 prostate,18.9 µM
same,GI50,UACC-257 melanoma,13.9 µM
same,TGI,UACC-257 melanoma,68.8 µM
same,GI50,PC-3 prostate,10.9 µM
same,TGI,PC-3 prostate,> 100 µM
same,GI50,HCT-116 colon,3.95 µM
same,TGI,HCT-116 colon,19.8 µM
same,GI50,K-562 leukemia,4.81 µM
same,TGI,K-562 leukemia,> 100 µM
same,GI50,BT-549 breast,7.95 µM
same,TGI,BT-549 breast,31.2 µM
same,GI50,HCT-15 colon,4.09 µM
same,TGI,HCT-15 colon,> 100 µM
same,GI50,CAKI-1 renal,2.27 µM
same,TGI,CAKI-1 renal,24.5 µM
same,GI50,KM12 colon,2.99 µM
same,TGI,KM12 colon,22.4 µM
same,GI50,HOP-62 NSCLC,12.8 µM
same,TGI,HOP-62 NSCLC,> 100 µM
same,GI50,UO-31 renal,1.42 µM
same,TGI,UO-31 renal,16.5 µM
same,GI50,786-0 renal,8.04 µM
same,TGI,786-0 renal,> 100 µM
same,GI50,U251 CNS,4.47 µM
same,TGI,U251 CNS,> 100 µM
same,GI50,ACHN renal,2.67 µM
same,TGI,ACHN renal,> 100 µM
same,GI50,SNB-19 CNS,10.3 µM
same,TGI,SNB-19 CNS,> 100 µM
same,GI50,A549 NSCLC,3.89 µM
same,TGI,A549 NSCLC,> 100 µM
same,GI50,CCRF-CEM leukemia,4.75 µM
same,TGI,CCRF-CEM leukemia,> 100 µM
same,GI50,HL-60(TB) leukemia,13.6 µM
same,TGI,HL-60(TB) leukemia,47.8 µM
same,GI50,SK-MEL-2 melanoma,6.23 µM
same,TGI,SK-MEL-2 melanoma,30.4 µM
same,GI50,UACC-62 melanoma,4.03 µM
same,TGI,UACC-62 melanoma,28.4 µM
same,GI50,IGROV1 ovarian,2.53 µM
same,TGI,IGROV1 ovarian,15.5 µM
same,GI50,MCF7 breast,2 µM
same,TGI,MCF7 breast,36.2 µM
same,GI50,SK-MEL-5 melanoma,3.01 µM
same,TGI,SK-MEL-5 melanoma,15.7 µM
same,GI50,SW-620 colon,7.22 µM
same,TGI,SW-620 colon,> 100 µM
same,GI50,HS 578T breast,6.12 µM
same,TGI,HS 578T breast,72.3 µM
same,GI50,NCI-H460 lung,3.55 µM
same,TGI,NCI-H460 lung,> 100 µM
same,GI50,M14 melanoma,6.45 µM
same,TGI,M14 melanoma,30.9 µM
same,GI50,EKVX NSCLC,5.03 µM
same,TGI,EKVX NSCLC,73.9 µM
same,GI50,SK-MEL-28 melanoma,12.8 µM
same,TGI,SK-MEL-28 melanoma,> 100 µM
same,GI50,MDA-MB-435,3.1 µM
same,TGI,MDA-MB-435,22.7 µM
same,GI50,HOP-92 NSCLC,13.4 µM
same,TGI,HOP-92 NSCLC,> 100 µM
same,GI50,OVCAR-3 ovarian,1.24 µM
same,TGI,OVCAR-3 ovarian,19.9 µM
same,GI50,MDA-MB-231 breast,24.8 µM
same,TGI,MDA-MB-231 breast,> 100 µM
same,GI50,NCI-H23 lung,8.95 µM
same,TGI,NCI-H23 lung,> 100 µM
same,GI50,TK-10 renal,16.1 µM
same,TGI,TK-10 renal,> 100 µM
same,GI50,NCI-H226 lung,6 µM
same,TGI,NCI-H226 lung,69.1 µM
same,GI50,MOLT-4 leukemia,6.97 µM
same,TGI,MOLT-4 leukemia,57.8 µM
same,GI50,OVCAR-8 ovarian,5.07 µM
same,TGI,OVCAR-8 ovarian,> 100 µM
same,GI50,COLO 205 colon,3.01 µM
same,TGI,COLO 205 colon,22.8 µM
same,GI50,HT29 colon,2.5 µM
same,TGI,HT29 colon,> 100 µM
same,GI50,SF-539 CNS,16.3 µM
same,TGI,SF-539 CNS,> 100 µM
same,GI50,LOX IMVI melanoma,4.67 µM
same,TGI,LOX IMVI melanoma,> 100 µM
same,GI50,T-47D breast,5.78 µM
same,TGI,T-47D breast,34 µM
same,GI50,OVCAR-4 ovarian,10.5 µM
same,TGI,OVCAR-4 ovarian,84 µM
same,GI50,A498 renal,2.07 µM
same,TGI,A498 renal,55 µM
same,GI50,SR leukemia,5.93 µM
same,TGI,SR leukemia,49.1 µM
same,GI50,SNB-75 CNS,2.97 µM
same,TGI,SNB-75 CNS,37.2 µM
same,GI50,NCI/ADR-RES ovarian,7.62 µM
same,TGI,NCI/ADR-RES ovarian,> 100 µM
same,GI50,RXF 393 renal,4.05 µM
same,TGI,RXF 393 renal,39.4 µM
same,GI50,OVCAR-5 ovarian,39 µM
same,TGI,OVCAR-5 ovarian,> 100 µM
same,GI50,SN12C renal,7.8 µM
same,TGI,SN12C renal,> 100 µM
same,GI50,SF-268 CNS,2.61 µM
same,TGI,SF-268 CNS,33.5 µM
